The record followed here is patent US11028058B2, “Heterocyclic compounds as adenosine antagonists” (NUVATION BIO INC., priority 2017, dated 2021).

The target of one assay is adenosine A2A receptor (Homo sapiens (Human), UniProt P29274). The experiment in a line: A2A adenosine receptor radioligand binding competition assay (filter plates). On the procedure:
(§1) Binding of selected compounds to the adenosine A2A, A1, A2B, and A3 receptors was tested using a binding competition assay.
(§2) The general protocol for the radioligand binding competition assay was as follows. Competition binding was performed in duplicate in the wells of a 96 well plate (Master Block, Greiner, 786201) containing binding buffer (optimized for each receptor), membrane extracts (amount of protein/well optimized for each receptor), radiotracer (final concentration optimized for each receptor), and test compound. Nonspecific binding was determined by co-incubation with 200-fold excess of cold competitor. The samples were incubated in a final volume of 0.1 mL at 25° C. for 60 minutes and then filtered over filter plates. Filters were washed six times with 0.5 mL of ice-cold washing buffer (optimized for each receptor) and 50 μL of Microscint 20 (Packard) were added on each filter. The filter plates were sealed, incubated 15 min on an orbital shaker and scintillation counted with a TopCount for 30 sec/filter.
For the A2A adenosine receptor radioligand binding assay, the following modifications were made to the general protocol. GF/C filters (Perkin Elmer, 6005174), presoaked in 0.01% Brij for 2 h at room temperature were used. Filters were washed six times with 0.5 mL of ice-cold washing buffer (50 mM Tris pH 7.4) and 50 μL of Microscint 20 (Packard) was added in each well. The plates were then incubated for 15 min on an orbital shaker and then counted with a TopCount™ for 1 min/well. Another radioligand binding assay was used to evaluate the binding affinity for the adenosine A2A receptor assay was performed in duplicate in the wells of a 384 plate. Assay buffer contained DPBS 500 mM, MgCl2 0.1 mM, and 1% DMSO. Membrane-bead suspension was prepared by mixing 25.98 μL of human adenosine A2A membrane preparation (Perkin Elmer, RBHA2AM400UA) at 33.4 μg/mL, 28 μL of ADA at 20 μg/mL, and 932 μL of SPA beads at 3.33 mg/mL) and incubated the mixture for 20 min at room temperature. Mixed 20 μL of radiotracer (^3H-SCH 58261) at 15 nM to each well containing test articles at various concentrations and centrifuge the plate at 1000 rpm for 1 minute. Added 30 μL of the membraine-bead suspension to each well. Sealed the plates and incubated for 1 hr at room temperature with vigorous mixing on a plate mixer. Plates were read on Microbeta^2 (Perkin Elmer, 2450-0010).

Assay [1] addresses adenosine A1 receptor (CHO-K1-A1 cell membranes) (Homo sapiens (Human), UniProt P30542). The experiment in a line: Adenosine A1 radioligand binding competition assay (3H-DPCPX). On the procedure: as §1
as §2, with “sec/filter. […]” for “sec/filter.”

For assay [2], the target named is adenosine A2B receptor (HEK-293-A2B cell membranes) (Homo sapiens (Human), UniProt P29275). The experiment in a line: Adenosine A2B radioligand binding competition assay (3H-DPCPX). The protocol:
as §1
as §2, with “sec/filter. […]” for “sec/filter.”

Assay [3] addresses adenosine A3 receptor (CHO-K1-A3 cell membranes) (Homo sapiens (Human), UniProt P0DMS8). The experiment in a line: Adenosine A3 radioligand binding competition assay (125I-AB-MECA). On the procedure: as §1, §2
For the adenosine A3 radioligand binding competition assay, the following reagents were used:
CHO-K1-A3 cell membranes, 1.5 μg/well; a binding buffer comprising HEPES 25 mM pH 7.4, MgCl2 5 mM, CaCl2 1 mM, 0.5% BSA; a wash buffer comprising HEPES 25 mM pH 7.4, MgCl2 5 mM, CaCl2 1 mM; a Unifilter GF/C—treated for 2 h with 0.5% BS; and 0.4 nM of ^125I-AB-MECA as the tracer.

In assay [4] the target is HEK-293 cells expressing human recombinant adenosine A2A receptor (Homo sapiens (Human), UniProt P29274). The experiment in a line: cAMP assay, Assay 1 (HTRF kit). The following applies: for inhibition at 0.1 µM: HEK293, 100 nM, read-out: A2a cAMP (% inh @ 100 nM). Format: cell-based. The protocol:
The functional activity of compounds was tested using one of the two assays to detect the present of cAMP. Activation of G-protein coupled receptors (such as A2A) results in activation of adenylcyclase which converts ATP into cAMP which is used as a downstream signaling molecule. Therefore, molecules which act as GPCR (or specifically A2A receptor) antagonists cause a decrease in intracellular cAMP concentration.
Both assays used HEK-293 cells expressing human recombinant adenosine A2A receptor were grown prior to the test in media without antibiotic.
12 μL of cells were mixed with 6 μL of the test compound at increasing concentrations and then incubated for 10 min. Thereafter 6 μL of the reference agonist was added at a final concentration corresponding to the historical EC80. The plates were then incubated for 30 min at room temperature. After addition of the lysis buffer and 1 hour incubation, cAMP concentrations were estimated, according to the manufacturer specification, with the HTRF® kit.
(Cyclic AMP is a second messenger, typically raised through Gs and lowered through Gi signalling.)

The target in assay [5] is recombinant human A2A receptor (Homo sapiens (Human), UniProt P29274). The experiment in a line: GTPγ35S scintillation proximity assay for A2A receptor. Format: biochemical. As to conditions: read-out: A2A γGTP assay (% Inh Avg) @ 100 nM. On the procedure: For antagonist testing, membranes extracts were prepared from HEK-293 cells expressing recombinant human A2A receptor, were mixed with GDP (volume:volume) and were incubated in assay buffer comprising 20 mM HEPES pH 7.4; 100 mM NaCl, 10 μg/mL saponin, 5 mM MgCl2 for at least 15 min on ice. In parallel, GTPγ[^35S] was mixed with the beads (volume:volume) just before starting the reaction. The following reagents were successively added in the wells of an Optiplate (Perkin Elmer): 25 μL of test compound or reference ligand, 25 μL of the membranes: GDP mix, 25 μL of reference agonist at historical EC80 and 25 μL of GTPγ[^35S] (PerkinElmer NEG030X), diluted in assay buffer to give 0.1 nM. The plate was incubated at room temperature for 1 hour. Then, 20 μL of IGEPAL was added for 30 minutes at room temperature. Following this incubation, 20 μL of beads (PVT-anti rabbit (PerkinElmer, RPNQ0016)), diluted in assay buffer at 50 mg/mL (0.5 mg/10 μL) and 20 μL of an Anti-GαS/olf antibody were added for a final incubation of 3 hours at room temperature. Then, the plates were centrifuged for 10 min at 2000 rpm, incubated at room temperature for 1 hour and counted for 1 min/well with a PerkinElmer TopCount reader.
recombinant human A2A receptor, sequence (P29274 whole entry): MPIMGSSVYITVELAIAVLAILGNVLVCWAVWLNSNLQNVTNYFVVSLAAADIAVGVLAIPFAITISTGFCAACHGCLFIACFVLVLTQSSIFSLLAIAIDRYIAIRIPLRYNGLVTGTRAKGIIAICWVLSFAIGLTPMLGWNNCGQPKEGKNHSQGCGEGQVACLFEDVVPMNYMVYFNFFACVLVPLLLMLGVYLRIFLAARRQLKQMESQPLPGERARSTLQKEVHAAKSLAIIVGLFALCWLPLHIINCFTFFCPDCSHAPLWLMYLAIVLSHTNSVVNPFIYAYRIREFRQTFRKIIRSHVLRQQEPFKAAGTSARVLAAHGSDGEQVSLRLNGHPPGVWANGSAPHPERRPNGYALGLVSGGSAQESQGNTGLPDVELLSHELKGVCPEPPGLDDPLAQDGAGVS
For orientation: SPA uses beads or plates that emit light when radiolabelled molecules are held near them.

HEK-293 cells expressing human recombinant adenosine A2A receptor, sequence (P29274 whole entry): as above
adenosine A2A receptor, sequence (P29274 whole entry): as above
adenosine A1 receptor (CHO-K1-A1 cell membranes), sequence (P30542 whole entry): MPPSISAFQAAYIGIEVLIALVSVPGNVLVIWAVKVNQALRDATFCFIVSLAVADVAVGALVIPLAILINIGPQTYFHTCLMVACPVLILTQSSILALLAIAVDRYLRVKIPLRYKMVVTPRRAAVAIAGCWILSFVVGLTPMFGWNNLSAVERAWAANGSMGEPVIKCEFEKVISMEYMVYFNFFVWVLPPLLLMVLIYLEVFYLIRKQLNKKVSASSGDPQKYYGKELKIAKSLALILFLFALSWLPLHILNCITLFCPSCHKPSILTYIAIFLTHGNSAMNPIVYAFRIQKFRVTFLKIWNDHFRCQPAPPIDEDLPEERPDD
adenosine A2B receptor (HEK-293-A2B cell membranes), sequence (P29275 whole entry): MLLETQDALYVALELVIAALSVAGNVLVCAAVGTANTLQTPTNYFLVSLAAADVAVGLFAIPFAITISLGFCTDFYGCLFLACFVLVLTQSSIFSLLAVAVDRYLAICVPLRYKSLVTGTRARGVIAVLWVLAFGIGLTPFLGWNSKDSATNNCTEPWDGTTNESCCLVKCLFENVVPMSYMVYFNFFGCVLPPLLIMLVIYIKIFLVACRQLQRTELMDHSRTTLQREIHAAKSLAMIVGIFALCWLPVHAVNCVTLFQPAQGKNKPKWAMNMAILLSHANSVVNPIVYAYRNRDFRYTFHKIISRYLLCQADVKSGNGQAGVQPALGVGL
adenosine A3 receptor (CHO-K1-A3 cell membranes), sequence (P0DMS8 whole entry): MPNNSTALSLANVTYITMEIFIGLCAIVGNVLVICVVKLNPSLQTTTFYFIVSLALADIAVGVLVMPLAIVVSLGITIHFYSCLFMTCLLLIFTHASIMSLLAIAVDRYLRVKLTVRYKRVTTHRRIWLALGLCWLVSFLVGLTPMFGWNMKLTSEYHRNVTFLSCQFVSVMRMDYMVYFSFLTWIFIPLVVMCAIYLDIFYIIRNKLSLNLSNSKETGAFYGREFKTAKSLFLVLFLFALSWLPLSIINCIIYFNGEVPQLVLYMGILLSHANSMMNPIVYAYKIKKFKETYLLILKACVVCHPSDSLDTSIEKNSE

In general, IC50 refers to the concentration that gives 50% inhibition. As to `Nc1cnc(-c2ccc(O)c(Cl)c2)c(-c2ccccc2)n1` [Compound 1.1, 4-(5-amino-3-phenylpyrazin-2-yl)-2-chlorophenol], at adenosine A2A receptor (100 nM), the “A2A radioligand binding competition assay % residual binding @ 100 nM” value stood at 30%. Moreover, at adenosine A2A receptor (1000 nM), the “A2A radioligand binding competition assay % residual binding @ 1000 nM” value turned out to be 12%. Also, the IC50 on adenosine A2A receptor (Table B1-1) is 57 nM; in assay [4] it was 6 nM. Further, the “Radioligand binding competition assay % residual binding @ 300 nM (A1)” value in assay [1] is −3%. Further, the “Radioligand binding competition assay % residual binding @ 300 nM (A2B)” value in assay [2] is −9%. In assay [3], the “Radioligand binding competition assay % residual binding @ 300 nM (A3)” value was 96%. Besides, the inhibition at 0.1 µM in assay [4] amounted to 97%; in assay [5], 82%.
As to `Nc1cnc(-c2ccc3ocnc3c2)c(-c2ccccc2)n1` [Compound No. 1.18, 5-(benzo[d]oxazol-5-yl)-6-phenylpyrazin-2-amine], on adenosine A2A receptor, the “A2A radioligand binding competition assay % residual binding @ 3000 nM” value is 100/ND/ND/ND %. Besides, the inhibition at 0.1 µM in assay [4] is 14%.
The corresponding values for `Cc1ccc(-c2nc(N)cnc2-c2ccc3ncccc3c2)o1` [Compound No. 1.20, 6-(5-methylfuran-2-yl)-5-(quinolin-6-yl)pyrazin-2-amine] are 3/ND/ND/ND % and 81%.
Turning to `Cc1ccc(-c2nc(N)cnc2-c2cc(Cl)c3ncccc3c2)o1` [Compound No. 1.21, 5-(8-chloroquinolin-6-yl)-6-(5-methylfuran-2-yl)pyrazin-2-amine], the “A2A radioligand binding competition assay % residual binding @ 3000 nM” value at adenosine A2A receptor is recorded as 5/ND/ND/ND %. For the same molecule, the inhibition at 0.1 µM in assay [4] is 100%.
Regarding `Nc1cnc(-c2ccc3ncccc3c2)c(-n2cccn2)n1` [Compound No. 1.22, 6-(1H-pyrazol-1-yl)-5-(quinolin-6-yl)pyrazin-2-amine], at adenosine A2A receptor, the “A2A radioligand binding competition assay % residual binding @ 3000 nM” value is 39/ND/ND/ND %. Besides, in assay [4], the inhibition at 0.1 µM worked out at 24%.
